Earlier results, collected in US20050250118A1 (priority 2003, published 2005).

Experiments:
AD patients [1] = conditions: galantamine therapy
AD patients [2] = conditions: presence of the ApoE4 polymorphism

Compound	most common side effects (AD patients [1])	response to treatment with ApoE4 allele present (AD patients [2])
COc1ccc2c3c1O[C@H]1C[C@@H](O)C=C[C@@]31CCN(C)C2 [galantamine]	nausea, vomiting, diarrhea, dizziness and anorexia	
Nc1c2c(nc3ccccc13)CCCC2 [tacrine]		reduced response to treatment
